Reference: PubChem BioAssay AID434987 (Southern Research Specialized Biocontainment Screening …, 2010)
The source made the active and inactive calls. How the calls were made is not given here.

Tested on: M. tuberculosis H37Rv growth inhibition with meropenem
Test: dose response, H37Rv, with and without meropenem (AID 434987);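 further: growth over 7 days at 37 °C before Alamar Blue read on day 9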
[1] = M. tuberculosis H37Rv growth inhibition, measured here: IC50 without meropenem
[2] = M. tuberculosis H37Rv growth inhibition, measured here: IC90 without meropenem
[3] = measured here: IC90 with meropenem

Row | SMILES | IC50 | IC50 [1] [µM] | IC90 [2] [µM] | IC90 [3] [µM]
1 | COc1cc(C(=O)Oc2cccnc2)cc(OC)c1OC | 5.8 µM | 48.4 | > 100 | 13.6
2 | COc1ccc(C2c3c(C)nn(-c4ccccc4)c3NC(=O)N2c2ccccc2)cc1 (centres undefined) | 17.4 µM | > 100 | > 100 | > 100
3 | Cc1ccc(C)c(CSc2nnc(C)c(=O)n2N)c1 | 5.73 µM | 14.1 | 39.5 | 20.4
4 | COCCCn1c(=O)/c(=C\c2cccc(OC)c2OC)s/c1=C(/C#N)C(=O)Nc1ccc(C(=O)O)cc1 | 5 µM | 14.6 | 31.4 | 24.6
5 | COc1ccc([N+](=O)[O-])cc1C1NN=C(c2ccccc2O)S1 (centres undefined) | > 100 µM (inactive) | > 100 | > 100 | > 100
6 | COc1cccc(NS(=O)(=O)c2ccc3[nH]cc(C(=O)NCCC(C)C)c(=O)c3c2)c1 | > 100 µM (inactive) | > 100 | > 100 | > 100
7 | O=C(NCC(c1ccco1)N1CCc2ccccc21)c1ccc([N+](=O)[O-])cc1 (centres undefined) | > 100 µM (inactive) | > 100 | > 100 | > 100
8 | O=C(Nc1ccc(Cl)cc1Cl)C1=Cc2ccccc2OC1 | > 100 µM (inactive) | > 100 | > 100 | > 100
9 | COc1cccc(/C=C/c2[nH]c(=O)[nH]c(=O)c2[N+](=O)[O-])c1O | 9.24 µM | 24.2 | 26.6 | 15.9
10 | COc1ccccc1C(c1c(N)n(C)c(=O)n(C)c1=O)C(C)[N+](=O)[O-] (centres undefined) | 11.2 µM (inactive) | 21.4 | 28.9 | 18
11 | Cc1[nH]n(-c2ccccc2)c(=O)c1/C=N/NC(=O)c1ccoc1C | 0.655 µM | > 100 | > 100 | 3.01
12 | O=C(Nc1nnc(-c2ccccc2SCc2ccccc2F)s1)Nc1ccccc1F | > 100 µM (inactive) | > 100 | > 100 | > 100
13 | C=C1C(=O)O[C@@H]2[C@H]1[C@@H](OC(=O)/C(C)=C/C)C/C(C)=C\C(=O)/C=C(\C)[C@@H]2O | 1.24 µM | 18.6 | 29 | 25.2
14 | CC(=O)Nc1ccc(S(=O)(=O)Nc2cccc3cccnc23)cc1 | 13.2 µM (inactive) | 21.5 | > 100 | 43.3
15 | Cn1c(SCC(=O)OC2CCCCC2)nnc1-c1ccc2c(c1)OCO2 | 7.93 µM | 30.5 | 70 | 34.9
16 | O=C(OCn1nnc2ccccc2c1=O)c1ccc2c(=O)n3c(nc2c1)CCC3 | 18 µM (inactive) | 35.4 | > 100 | 26.1
17 | CN(C)C1=C(Cl)C(=O)N(c2ccc(Cl)c(Cl)c2)C1=O | 2.73 µM | 7.91 | 24 | 14.9
18 | COc1ccc2c(C)nc(Nc3nc(-c4ccccc4)cc(=O)[nH]3)nc2c1 | > 100 µM (inactive) | > 100 | > 100 | > 100
19 | Cc1ccc(Cn2c(C(CO)Nc3nc(-c4ccc(Cl)c([N+](=O)[O-])c4)cs3)nc3ccccc32)cc1 (centres undefined) | > 100 µM (inactive) | > 100 | > 100 | > 100
20 | FC(F)Oc1ccccc1C1CC(c2ccc(Br)s2)Nc2ncnn21 (centres undefined) | > 100 µM (inactive) | > 100 | > 100 | > 100
21 | CCN1C(=O)[C@@H]2[C@@H](c3ccc(-c4ccc(Cl)c(Cl)c4)c(OC)c3)N3CCC[C@@]3(C(=O)OC)[C@@H]2C1=O | > 100 µM (inactive) | > 100 | > 100 | > 100

Row | SMILES | IC50 | IC50 [1] [µM] | IC90 [2] [µM] | IC90 [3] [µM]
22 | O=C(NN=C(Cc1ccccc1)Cc1ccccc1)c1ccccc1F | 1.64 µM | > 100 | > 100 | > 50
23 | CC(=O)NC(=S)Nc1ccc(NC(=O)c2cccnc2Cl)cc1 | > 100 µM (inactive) | > 100 | > 100 | > 100
24 | O=C(C1=C[C@H](c2ccc(Br)cc2)C[C@H](OCCCCO)O1)N1CCN(Cc2ccc3c(c2)OCO3)CC1 | 49.4 µM (inactive) | 65.3 | 88 | > 100
25 | Cc1ccccc1NC(=O)/C(C#N)=C\c1cc(C)n(-c2ccc(C(=O)O)cc2)c1C | 21 µM (inactive) | 46.8 | 76.7 | 51.1
26 | COc1ccc(NC(=O)c2cc(Br)ccc2Cl)c(OC)c1 | 23.2 µM | > 100 | > 100 | > 100
27 | CC(=O)Nc1ccc(Nc2ncc([N+](=O)[O-])c(Nc3ccc(NC(C)=O)cc3)n2)cc1 | 0.423 µM | 2.43 | > 100 | 45.5
28 | CCOC(=O)CSc1nnc(NC(=O)c2cccc(S(=O)(=O)N3CCCCC3)c2)s1 | 23.8 µM (inactive) | 41 | > 100 | > 100
29 | CCc1cc2c(Sc3nc4ccccc4s3)ncnc2s1 | 50.6 µM (inactive) | 90.1 | > 100 | > 100
30 | COc1ccc(C(=O)/C=C/c2ccc(O)cc2)c(O)c1CC=C(C)C | 54.3 µM (inactive) | 64.8 | 98.4 | 75.1
31 | COc1cccc(-c2ccc(-c3noc(-c4ccccc4F)n3)c(OC)n2)c1 | 9.65 µM | > 100 | > 100 | > 12.5
32 | Brc1ccc(CNc2ccc3ncccc3c2)cc1 | > 100 µM (inactive) | > 100 | > 100 | > 100
33 | NC(=O)Nc1ccc(C(=O)OCC(=O)Nc2ccc(Cl)cn2)cc1 | > 100 µM (inactive) | > 100 | > 100 | > 100
34 | O=C(CCN1c2ccccc2Sc2ccccc21)Oc1ccccc1 | 8.48 µM | > 100 | > 100 | > 100
35 | Cc1cc2c(N=NC(=O)C3CC3c3ccccc3)c(O)[nH]c2cc1Br (centres undefined) | > 100 µM (inactive) | > 100 | > 100 | > 100
36 | CCn1c(-c2ccc(-c3ccccc3)cc2)c[nH]c1=S | 29.1 µM (inactive) | 47.8 | > 100 | > 100
37 | CCOC(=O)c1nc(N2CCN(C(=O)OCC)CC2)c2c3c(sc2n1)CCCC3 | 39.5 µM (inactive) | 60.6 | 96.6 | 40.9
38 | O=S1(=O)CCO[C@H]2Cc3ccccc3[C@H]2N1Cc1ccc(F)cc1 | > 100 µM (inactive) | > 100 | > 100 | > 100
39 | CC1(C)C2CC=C(/C=N/NC(=O)c3ccccc3O)C1C2 (centres undefined) | 65.7 µM (inactive) | > 100 | > 100 | > 100
40 | CCOc1ccc(N2C(=O)CC(N)C2=O)cc1 (centres undefined) | 30.9 µM (inactive) | 45.9 | 51.4 | 52.4
41 | CCC(=O)Oc1oc(-c2ccccc2)nc1C=Nc1ccc(C)cc1 | > 100 µM (inactive) | > 100 | > 100 | > 100
